Read-outs that look alike come from different tables or passages of the source.
What was measured:
[1] = rcm bond, 15-membered ring, Zhan 1b, 1,2-DCE
GT3a NS3/4A protease = target: T1, GT3a NS3/4A protease (Hepatitis C virus genotype 3a, UniProt Q81495); test: biochemical
T1 construct: drug-resistant variant D168A, and GT3a NS3/4A protease; made in house; host or cells: Escherichia coli BL21(DE3)
Experimental: For each assay, 2 nM of NS3/4A protease (GT1, D168A and GT3) was pre-incubated at room temperature for 1 h with increasing concentration of inhibitors in assay buffer [50 mM Tris, 5% glycerol, 10 mM DTT, 0.6 mM LDAO, and 4% dimethyl sulfoxide]. Inhibition assays were performed in nonbinding surface 96-well black half-area plates (Corning) in a reaction volume of 60 μt. […] Three independent data sets were collected for each inhibitor with each protease construct.

[2] = target: T2, GT1a D168A NS3/4A protease (UniProt P27958, C1185S/D1194A, species not given); format: biochemical, Hepatitis C virus; settings: read-out: Ki (nM) GT1a D168A NS3/4A Protease
T2 construct: Ki (nM) GT1a D168A NS3/4A Protease
How it was run: (§1)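 Enzyme (GT1a wild type or D168A mutant, 2 nM) was preincubated with inhibitor dilutions for 1 h at room temperature in pH 7.5 Tris buffer with glycerol, DTT, LDAO and 4% DMSO.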

[3] = target: GT1a D168A NS3/4A protease; format: biochemical, Hepatitis C virus; settings: Table 3; Ki D168A relative to GT1a WT
How it was run: as §1

[4] = target: T3, wild-type GT1a NS3/4A protease (UniProt P27958, C1185S, species not given); format: biochemical, Hepatitis C virus; settings: read-out: Ki (nM) GT1a WT NS3/4A Protease
T3 construct: Ki (nM) GT1a WT NS3/4A Protease
How it was run: as §1

[5] = system: HCV replicon D168A variant in Huh7 cells; test: microbe, parasite or virus in culture; format: cell-based, Hepatitis C virus; settings: for EC50: Hepatitis C virus; for Replicon EC50 (Fold change) D168A: Table 4, relative to WT replicon
How it was run: (§2)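 Protease variants were introduced by site-directed mutagenesis into a genotype 1b Con1 luciferase replicon containing genotype 1a H77 NS3. Each replicon RNA was electroporated into Huh7 cells. Inhibitor was titrated upward. Luminescence was measured after 96 h.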

[6] = system: HCV replicon R155K variant in Huh7 cells; test: microbe, parasite or virus in culture; format: cell-based, Hepatitis C virus; settings: for EC50: Hepatitis C virus; for Replicon EC50 (Fold change) R155K: Table 4, relative to WT replicon
How it was run: as §2

[7] = system: HCV replicon A156T variant in Huh7 cells; test: microbe, parasite or virus in culture; format: cell-based, Hepatitis C virus; settings: for EC50: Hepatitis C virus; for Replicon EC50 (Fold change) A156T: Table 4, relative to WT replicon
How it was run: as §2

[8] = system: HCV replicon D168V variant in Huh7 cells; test: microbe, parasite or virus in culture; format: cell-based, Hepatitis C virus; settings: for EC50: Hepatitis C virus; for Replicon EC50 (Fold change) D168V: Table 4, relative to WT replicon
How it was run: as §2

[9] = system: wild-type HCV replicon in Huh7 cells; test: Cell-based drug susceptibility (replicon) assay, wild-type; settings: Hepatitis C virus, read-out: Replicon EC50 (nM) WT
How it was run: as §2

[10] = Huh-7, 96 h, read-out: Replicon EC50 (nM) D168A, Table 2, Huh7 cells, luciferase 96 h
[11] = Huh-7, read-out: Replicon EC50 (nM) D168A, Table 4
[12] = Huh-7, 96 h, read-out: Replicon EC50 (nM) R155K, Table 2, Huh7 cells, luciferase 96 h
[13] = Huh-7, read-out: Replicon EC50 (nM) R155K, Table 4
[14] = Huh-7, 96 h, read-out: Replicon EC50 (nM) A156T, Table 2, Huh7 cells, luciferase 96 h
[15] = Huh-7, read-out: Replicon EC50 (nM) A156T, Table 4
[16] = Huh-7, 96 h, read-out: Replicon EC50 (nM) D168V, Table 2, Huh7 cells, luciferase 96 h
[17] = Huh-7, read-out: Replicon EC50 (nM) D168V, Table 4
[18] = Huh-7, 96 h, Table 2, Huh7 cells, luciferase 96 h

T1 sequence (Q81495 1033-1214): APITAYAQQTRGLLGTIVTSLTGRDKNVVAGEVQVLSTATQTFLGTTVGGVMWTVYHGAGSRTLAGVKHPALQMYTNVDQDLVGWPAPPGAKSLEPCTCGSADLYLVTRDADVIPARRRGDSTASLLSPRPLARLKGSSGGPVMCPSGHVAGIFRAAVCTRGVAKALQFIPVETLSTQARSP

Row | Molecule | Ki ([2]; Table 1) | Ki ([2]; Table 3) | Ki (Fold change) GT1a D168A NS3/4A Protease [3] | Ki ([4]; Table 1) | Ki ([4]; Table 3) | EC50 [5, 10] | EC50 [5, 11] | Replicon EC50 (Fold change) D168A [5] | EC50 [6, 12] | EC50 [6, 13] | Replicon EC50 (Fold change) R155K [6] | EC50 [7, 14] | EC50 [7, 15] | Replicon EC50 (Fold change) A156T [7] | EC50 [8, 16] | EC50 [8, 17] | Replicon EC50 (Fold change) D168V [8] | EC50 [9, 18] | EC50 ([9]; Huh-7, Table 4) | further results
1 | CCOC(=O)[C@@]12C[C@H]1/C=C\CCCCC[C@H](NC(=O)OC(C)(C)C)C(=O)N1C[C@H](Oc3nc4cc(OC)ccc4nc3C(F)(F)F)C[C@H]1C(=O)N2 | – | – | – | – | – | – | – | – | – | – | – | – | – | – | – | – | – | – | – | ring closure, isolated yield ([1]; from C=CCCCCC[C@H](NC(=O)OC(C)(C)C)C(=O)N1C[C@H](Oc2nc3cc(OC)ccc3nc2C(F)(F)F)C[C@H]1C(=O)N[C@]1(C(=O)OCC)C[C@H]1C=C, 6.7 mM, 70.0 °C, 5.0 h): 70%
2 | COc1ccc2nc(C)c(O[C@@H]3C[C@H]4C(=O)N[C@]5(C(=O)NS(=O)(=O)C6CC6)C[C@H]5/C=C\CCCCC[C@H](NC(=O)OC(C)(C)C)C(=O)N4C3)nc2c1 [Compound 18b, tert-Butyl ((2R,6S,13aS,14aR,16aS,Z)-14a-((cyclopropylsulfonyl)carbamoyl)-2-((7-methoxy-3-methylquinoxalin-2-yl)oxy)-5,16-dioxo-1,2,3,5,6,7,8,9,10,11,13a,14,14a,15,16,16a-hexadecahydrocyclopropa[e]pyrrolo[1,2-a][1,4]diazacyclopentadecin-6-yl)carbamate] | 50.9 nM | 50.9 ± 3.7 nM | (15) fold | 3.4 nM | 3.4 nM | 4.24 nM | 4.24 nM | (11) fold | 1.17 nM | 1.17 nM | (3) fold | 5.95 nM | 5.95 nM | (15) fold | 3.17 nM | 3.17 nM | (8) fold | 0.39 nM | 0.39 nM | Ki (GT3a NS3/4A protease): 152 nM; Ki (Fold change) GT3a NS3/4A Protease (GT3a NS3/4A protease; Table 3, Ki GT3a relative to GT1a WT): (45) fold; ring closure, isolated yield ([1]; 6.5 mM, 70.0 °C): 45%
3 | CC(C)(C)OC(=O)N[C@H]1CCCCC/C=C\[C@@H]2C[C@@]2(C(=O)NS(=O)(=O)C2CC2)NC(=O)[C@@H]2C[C@@H](Oc3nc4ccccc4nc3-c3cccs3)CN2C1=O [Compound 18f, tert-Butyl ((2R,6S,13aS,14aR,16aS,Z)-14a-((cyclopropylsulfonyl)carbamoyl)-5,16-dioxo-2-((3-(thiophen-2-yl)quinoxalin-2-yl)oxy)-1,2,3,5,6,7,8,9,10,11,13a,14,14a,15,16,16a-hexadecahydrocyclopropa[e]pyrrolo[1,2-a][1,4]diazacyclopentadecin-6-yl)carbamate, reference compound] | 1820 nM | 1820 ± 347 nM | – | 1.03 nM | 1.03 nM | 111 nM | 111 nM | (113) fold | 21.7 nM | 21.7 nM | (22) fold | 256 nM | 256 nM | (261) fold | 193 nM | 193 nM | (197) fold | 0.98 nM | 0.98 nM | ring closure, isolated yield ([1]; from C=CCCCCC[C@H](NC(=O)OC(C)(C)C)C(=O)N1C[C@H](Oc2nc3ccccc3nc2-c2cccs2)C[C@H]1C(=O)N[C@]1(C(=O)NS(=O)(=O)C2CC2)C[C@H]1C=C, 3.5 mM, 70.0 °C): 61%; ring closure, isolated yield ([1]; 3.5 mM): 61%
4 | CCc1nc2ccccc2nc1O[C@@H]1C[C@H]2C(=O)N[C@]3(C(=O)NS(=O)(=O)C4CC4)C[C@H]3/C=C\CCCCC[C@H](NC(=O)OC(C)(C)C)C(=O)N2C1 [Compound 18g, tert-Butyl ((2R,6S,13aS,14aR,16aS,Z)-14a-((cyclopropylsulfonyl)carbamoyl)-2-((3-ethylquinoxalin-2-yl)oxy)-5,16-dioxo-1,2,3,5,6,7,8,9,10,11,13a,14,14a,15,16,16a-hexadecahydrocyclopropa[e]pyrrolo[1,2-a][1,4]diazacyclopentadecin-6-yl)carbamate] | 190 nM | 190 ± 13 nM | (26) fold | 7.18 nM | 7.18 nM | 8.55 nM | 8.55 nM | (19) fold | 1.81 nM | 1.81 nM | (4) fold | 10.6 nM | 10.6 nM | (23) fold | 14 nM | 14 nM | (30) fold | 0.46 nM | 0.46 nM | ring closure, isolated yield ([1]; 6.9 mM): 60%
5 | COc1ccc2nc(C(C)C)c(O[C@@H]3C[C@H]4C(=O)N[C@]5(C(=O)NS(=O)(=O)C6(C)CC6)C[C@H]5/C=C\CCCCC[C@H](NC(=O)OC(C)(C)C)C(=O)N4C3)nc2c1 [Compound 19e, tert-Butyl ((2R,6S,13aS,14aR,16aS,Z)-2-((3-isopropyl-7-methoxyquinoxalin-2-yl)oxy)-14a-(((1-methylcyclopropyl)sulfonyl)carbamoyl)-5,16-dioxo-1,2,3,5,6,7,8,9,10,11,13a,14,14a,15,16,16a-hexadecahydrocyclopropa[e]pyrrolo[1,2-a][1,4]diazacyclopentadecin-6-yl)carbamate] | 211 nM | 211 ± 19 nM | (364) fold | 0.58 nM | 0.58 nM | 11.9 nM | 11.9 nM | (6) fold | 4.14 nM | 4.14 nM | (2) fold | 21.2 nM | 21.2 nM | (11) fold | 18.1 nM | 18.1 nM | (10) fold | 1.86 nM | 1.86 nM | ring closure, isolated yield ([1]; 6.6 mM): 60%
6 | tert-Butyl 42R,6S,13aS,14aR,16aS,Z)-14a-((cyclopropylsulfonyl)carbamoyl)-2-((3-isopropyl-7-methoxyquinoxalin-2-yl)oxy)-5,16-dioxo-1,2,3,5,6,7,8,9,10,11,13a,14,14a,15,16,16a-hexadecahydrocyclopropa[e]pyrrolo[1,2-a][1,4]diazacyclopentadecin-6-yl)carbamate | – | – | – | – | – | – | – | – | – | – | – | – | – | – | – | – | – | – | – | ring closure, isolated yield ([1]; 6.6 mM, 70.0 °C): 58%

From patent US11472778B2, “Hepatitis C virus NS3/4A protease inhibitors” (priority 2017, dated 2022)
